Experimental data: US20250066417A9, “NEW PEPTIDE-BASED DIAGNOSTIC AND THERAPEUTIC AGENTS” (ENLITISA (SHANGHAI) PHARMACEUTICAL CO., LTD., priority 2021, published 2025)
“And” between values parts separate entries of the source, which are not always exact repeats. Equal entries are not always repeated. Bridges are numbered along the chain shown (N, C = ends). Roman numbers before positions name the chains, in order. Where no end group is shown, it is not given here. [ ]: non-standard residue; d: D form. Dopa = N[C@@H](Cc1ccc(O)c(O)c1)C(=O)O; ACP = 6-aminocaproic acid (linker); Hyp = O=C(O)[C@@H]1C[C@@H](O)CN1

Assays:
[1] = Pharmacokinetic study of tritium-labelled peptide after rectal administration (total radioactivity by liquid scintillation); settings: for Total radioactivity at 168 h (Cmax %): 168 h as % of Cmax
Method: 1 mL of a pH 5.0 acetic acid solution was added to the product of Example 3 above with even mixing. 0.952 mL of the resultant solution was added to a 40 mL glass bottle.
About 200 μL of 0.5% Evans Blue aqueous solution was added followed by even mixing. […] 30 Sprague-Dawley rats, half male and half female (Beijing Vital River Laboratory Animal Technology Co., Ltd.) were quarantined and acclimatised in polycarbonate cages for 5 to 7 days. The environmental conditions were controlled at room temperature of between 20° C. and 26° C., with a relative humidity of between 40% and 70%, with 12 hours of alternating lightness and darkness.
The body weights required for randomization were obtained on Day 1 (before dosing). After randomization, rats were assigned to one of five groups (three animals per sex in each group).
After weighing, animals were anesthetized by Intramuscular Injection of Zoletil-50. The animals were placed on their backs. Stools at the end of their rectums were gently squeezed out, and the skin around anus was disinfected with 75% alcohol.
A closed catheter (No. 8, double lumen with guide wire) was Inserted Into the anus of the rats to a depth of about 3 cm, and then a gastric lavage needle was slowly Inserted to a depth of at least 3.5 cm. After lifting the perlanal skin, fixing the catheter and the gavage needle, about 1 mL of water was Injected Into the bladder cavity of the syringe guide catheter to make it expand. Then the gel comprising the title compound was given quickly through the needle.
After administration, the catheter was ligated and fixed by wrapping tape around the root of the rats' tails. The catheter remained in the rectum for about 4 hours before removal.
Blood, rectal contents and rectal mucosa samples were collected. All centrifuge tubes coated with EDTA-K2 were stored either in a refrigerator (at 2 to 8° C.) or In a cooler filled with Ice, and were protected from light prior to use. The collected blood was transferred Into the centrifuge tubes and stored in an Ice box protected from light after being mixed manually by reversing the tubes at least 5 times.
Then, the tubes were centrifuged at 1800 g for 10 minutes at between 2 and 8° C., 2 hours after blood collection. After centrifugation, the collected plasma samples were transferred Into newly-labeled centrifuge tubes and aliquoted Into two sets, stored ay below −70° C.
Plasma, rectal contents and rectal mucosa samples were analyzed using a liquid scintillation counter, and the radioactive concentration was calculated according to the actual sampling volume. Half-lives were also calculated using WinNonlin software. MS Excel was used for data statistical analysis, including mean, standard deviation (SD), and coefficient of variation (CV), etc.
Total radioactivity unit (ng Eq./g)=DPM/g÷S.A. ×1000, S.A.=144,300 DPM/μg

rat rectum [2] = assay: In vivo adhesive study: fluorescence imaging of rat rectum after rectal injection
Method: (§1) The title compound of Example 1 above was dissolved in distilled water to make a 0.05 mg/mL solution. The fluorescence absorption of the solution was scanned at 520 nm using a Hitachi F-7000 fluorescence spectrophotometer with an Interval of 20 nm. The optimal excitation wavelength was 450 nm and the maximum absorption wavelength was 521 nm.
In an in vivo study, four rats were anesthetized by intraperitoneal injection of 5% chloral hydrate at a dose of 7 ml/kg. 1 mL of the solution of test compound was Injected Into the rectum using a 2 mL syringe. Swallowtail clamps were used to seal the anus to keep the liquid in rectum for about 2 hours. Rats were sacrificed at 2 hours, 4 hours, 8 hours and 24 hours after injection of test compound.
(§2) In a separate ex vivo study, rats were anesthetized and their abdominal cavities opened. 8 cm of the rectum was removed and cut Into 2 pieces, with fat and contents stripped. 1 mL of normal saline was used to flush the rectal cavities, which were then placed Into a constant humidity plate. 1 mL of the solution of test compound was Injected Into the rectum and ligated at both ends. Samples were taken at 0 hours, 0.5 hours, 1 hour and 2 hours for fluorescence imaging. A MZX81 fluorescence stereomicroscope was used for imaging (Guangzhou Micro-Shot Technology Co., Ltd).
(§3) The fluorescence Images are show in FIG. 1 (in vivo study) and FIG. 2 (ex vivo study).

rat rectum [3] = assay: Ex vivo adhesive study: fluorescence imaging of excised rat rectum; settings: rat rectum, 0, 0.5, 1 and 2 hours, FIG. 2
Method: as §1, §2, §3

[4] = Fluorescence stability of the 0.05 mg/mL aqueous solution at room temperature; format: physicochemical; settings: 0.05 mg/mL in distilled water, after one hour at room temperature
Method: as §1

In the case of “I: AKPSY[Hyp]T[Dopa][Hyp]KKK-OH / II: AKPSY[Hyp]T[Dopa][Hyp]KK / III: AKPSY[Hyp]T[Dopa][Hyp]K / IV: AKPSY[Hyp]T[Dopa][Hyp]K (amide I:11-IV:C, I:12-II:C, II:11-III:C) [Example 3, ^3H-Labelled [(Ala-Lys-Pro-Ser-Tyr-Hyp-Thr-DOPA-Hyp-Lys)2-Lys]2-Lys]”, the “radioactivity in rectal mucosa relative to rectal contents” value ([1]; 24 hours after administration) is reported as “about 6.01 times”, the “radioactivity in rectal mucosa relative to rectal contents” value ([1]; 72 hours after administration) is reported as roughly 3.32 times and the “radioactivity in rectal mucosa relative to rectal contents” value ([1]; 168 hours) is reported as 2.28 times. The “radioactivity concentration of rectal mucosa relative to plasma” value ([1]; one hour after rectal administration) was 1121 times, the Total radioactivity ([1]; plasma, 1 h, rectal 1.5 mg/100 μCi/kg, rats) was 47.8 ng Eq./g and 47.8 ± 12.2 ng Eq./g and the Total radioactivity ([1]; plasma, 6 h, rectal 1.5 mg/100 μCi/kg, rats) was 54.1 ng Eq./g and 54.1 ± 14.4 ng Eq./g. It also gave a Total radioactivity ([1]; plasma, 24 h, rectal 1.5 mg/100 μCi/kg, rats) of 18.6 ± 6.2 ng Eq./g, a Total radioactivity ([1]; plasma, 72 h, rectal 1.5 mg/100 μCi/kg, rats) of 15.2 ± 8.4 ng Eq./g and a Total radioactivity ([1]; plasma, 168 h, rectal 1.5 mg/100 μCi/kg, rats) of 13.3 ± 3.41 ng Eq./g. For the same substance, the “tolerability of the experimental dose” value ([1]; rectal 1.5 mg/100 μCi/kg, rats) was “well tolerated”, the “adverse reaction after administration” value ([1]; rectal 1.5 mg/100 μCi/kg, rats, whole experiment) was “no obvious adverse reaction” and the “time of highest total radioactivity after administration” value ([1]; rectal contents) was 1 h. For the same substance, the Total radioactivity ([1]; rectal contents, 1 h, rectal 1.5 mg/100 μCi/kg, rats) was 35322 ng Eq./g and 35322 ± 515 ng Eq./g, the Total radioactivity ([1]; rectal contents, 6 h, rectal 1.5 mg/100 μCi/kg, rats) was 21981 ± 153 ng Eq./g and the Total radioactivity ([1]; rectal contents, 24 h, rectal 1.5 mg/100 μCi/kg, rats) was 56.4 ± 54. ng Eq./g. The “average concentration at 24 hours as % of Cmax” value ([1]; rectal contents) was roughly 0.16%, the Total radioactivity ([1]; rectal contents, 72 h, rectal 1.5 mg/100 μCi/kg, rats) was 44.3 ± 27. ng Eq./g and the Total radioactivity ([1]; rectal contents, 168 h, rectal 1.5 mg/100 μCi/kg, rats) was 16.5 ng Eq./g and 16.5 ± 6.88 ng Eq./g. The “Total radioactivity at 168 h (Cmax %)” value ([1]; rectal contents) was 0.05%, the “time of highest total radioactivity after administration” value ([1]; rectal mucosa) was 1 h and the Total radioactivity ([1]; rectal mucosa, 1 h, rectal 1.5 mg/100 μCi/kg, rats) was 53593 ng Eq./g and 53593 ± 472 ng Eq./g. The “radioactivity concentration of rectal mucosa relative to that at 1 h” value ([1]; rectal mucosa, 6 h (11163 ng Eq./g)) was “about 20.83%”, the Total radioactivity ([1]; rectal mucosa, 6 h, rectal 1.5 mg/100 μCi/kg, rats) was 11163 ng Eq./g and 11163 ± 702 ng Eq./g and the Total radioactivity ([1]; rectal mucosa, 24 h, rectal 1.5 mg/100 μCi/kg, rats) was 339 ng Eq./g and 339 ± 95. ng Eq./g. For the same substance, the “average concentration at 24 hours as % of Cmax” value ([1]; rectal mucosa) was “about 0.63%”, the Total radioactivity ([1]; rectal mucosa, 72 h, rectal 1.5 mg/100 μCi/kg, rats) was 147 ng Eq./g and 147 ± 84. ng Eq./g and the Total radioactivity ([1]; rectal mucosa, 168 h, rectal 1.5 mg/100 μCi/kg, rats) was 37.6 ng Eq./g and 37.6 ± 10.2 ng Eq./g. For the same substance, the “Total radioactivity at 168 h (Cmax %)” value ([1]; rectal mucosa) was 0.07% and the “gender differences in total radioactivity concentrations” value ([1]; rectal mucosa, rectal contents and plasma, male vs female rats) was “no significant gender differences”.

With “[5-FITC-ACP-Ala-Lys-Pro-Ser-Tyr-Hyp-Thr-DOPA-Hyp-Lys)2-Lys]2-Lys ({5‑FITC-ACP}-AKPSY[Hyp]T[Dopa][Hyp]K; also: branched dendrimer: four peptide copies on a three-Lys core) [Example 1]” the “adhesiveness of test compound to mucous” value (rat rectum [2]; rat rectum, 2, 4, 8 and 24 hours after injection, FIG. 1) was “very stable”, the “fluorescence intensity in the in vivo samples” value (rat rectum [2]; rat rectum, even with constant fecal excretion) was “did not decrease significantly” and the “adhesiveness of test compound to mucous” value (rat rectum [3]) was “very stable”. For the same substance, the “fluorescence intensity (stability of test compound in solution)” value [4] was “did not change”.
